Among the data in ChEMBL document CHEMBL3132769, “Fragment growing to retain or alter the selectivity of anchored kinase hinge-binding fragments” (Medchemcomm, 2014) are inhibition values, retold here.

The term inhibition denotes the change of the read-out against control, counted positive when it falls.

In assay [1] the target is Dual specificity tyrosine-phosphorylation-regulated kinase 1A (Rattus norvegicus) (UniProt Q63470). The assay is described as follows: Inhibition of rat full length DYRK1a expressed in Escherichia coli cell assessed as substrate phosphorylation using fluorescence-labelled peptides as substrate at 420 uM after 90 mins by microfluidic peptide phosphorylation assay.
Assay [2] concerns the target T1, Serine/threonine-protein kinase D1 (Homo sapiens) (UniProt Q15139).
T1 sequence (whole entry): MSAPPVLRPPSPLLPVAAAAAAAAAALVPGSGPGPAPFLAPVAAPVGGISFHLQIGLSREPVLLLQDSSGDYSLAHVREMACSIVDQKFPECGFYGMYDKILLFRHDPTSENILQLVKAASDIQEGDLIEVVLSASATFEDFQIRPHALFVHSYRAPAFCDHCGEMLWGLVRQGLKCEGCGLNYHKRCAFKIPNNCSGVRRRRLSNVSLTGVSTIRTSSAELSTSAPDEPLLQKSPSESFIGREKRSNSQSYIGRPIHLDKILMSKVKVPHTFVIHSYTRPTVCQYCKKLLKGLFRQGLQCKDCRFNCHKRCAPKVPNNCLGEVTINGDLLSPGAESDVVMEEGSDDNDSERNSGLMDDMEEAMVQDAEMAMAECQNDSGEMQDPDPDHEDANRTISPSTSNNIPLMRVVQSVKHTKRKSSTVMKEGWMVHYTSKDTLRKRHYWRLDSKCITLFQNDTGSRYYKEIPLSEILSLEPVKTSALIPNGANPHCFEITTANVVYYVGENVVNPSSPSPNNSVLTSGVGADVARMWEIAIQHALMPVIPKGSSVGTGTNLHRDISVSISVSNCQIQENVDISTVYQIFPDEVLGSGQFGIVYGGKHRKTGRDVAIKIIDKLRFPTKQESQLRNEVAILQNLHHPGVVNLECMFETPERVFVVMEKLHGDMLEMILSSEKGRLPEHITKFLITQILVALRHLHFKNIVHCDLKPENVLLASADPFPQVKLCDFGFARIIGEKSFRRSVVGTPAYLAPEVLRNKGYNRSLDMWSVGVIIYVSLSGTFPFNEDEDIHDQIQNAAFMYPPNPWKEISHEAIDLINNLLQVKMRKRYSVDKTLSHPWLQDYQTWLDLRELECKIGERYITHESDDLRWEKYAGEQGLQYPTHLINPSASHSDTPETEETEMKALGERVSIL
The experiment in a line: Inhibition of human full length PKD1 expressed in baculovirus assessed as substrate phosphorylation using fluorescence-labelled peptides as substrate at 420 uM after 90 mins by microfluidic peptide phosphorylation assay.

The target in assay [3] is T2, Serine/threonine-protein kinase D3 (Homo sapiens) (UniProt O94806).
T2 sequence (whole entry): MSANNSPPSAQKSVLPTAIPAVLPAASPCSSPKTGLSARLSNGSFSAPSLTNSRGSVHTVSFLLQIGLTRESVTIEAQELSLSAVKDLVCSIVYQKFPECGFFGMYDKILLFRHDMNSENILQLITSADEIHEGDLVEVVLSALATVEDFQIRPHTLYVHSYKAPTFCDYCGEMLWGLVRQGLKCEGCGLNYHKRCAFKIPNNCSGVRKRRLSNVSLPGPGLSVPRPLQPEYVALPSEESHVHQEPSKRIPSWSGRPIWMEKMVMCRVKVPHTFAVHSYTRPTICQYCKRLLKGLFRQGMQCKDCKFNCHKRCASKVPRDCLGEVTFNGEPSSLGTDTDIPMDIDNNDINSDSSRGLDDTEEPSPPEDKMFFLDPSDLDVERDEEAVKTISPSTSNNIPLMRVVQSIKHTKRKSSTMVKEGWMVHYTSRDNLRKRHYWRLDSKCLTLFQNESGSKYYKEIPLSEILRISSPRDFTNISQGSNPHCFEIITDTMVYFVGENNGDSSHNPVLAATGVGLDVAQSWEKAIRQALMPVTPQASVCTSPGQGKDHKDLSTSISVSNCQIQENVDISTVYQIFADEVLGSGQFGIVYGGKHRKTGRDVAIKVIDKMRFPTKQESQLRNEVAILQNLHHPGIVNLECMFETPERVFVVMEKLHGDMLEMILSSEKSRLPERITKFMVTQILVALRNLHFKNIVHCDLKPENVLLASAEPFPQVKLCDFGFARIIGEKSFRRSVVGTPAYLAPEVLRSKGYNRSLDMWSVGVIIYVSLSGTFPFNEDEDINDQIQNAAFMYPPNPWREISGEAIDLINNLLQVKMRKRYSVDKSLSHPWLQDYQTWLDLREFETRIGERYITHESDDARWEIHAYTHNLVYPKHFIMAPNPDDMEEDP
The settings on record: 0.1 uM.
Description: Inhibition of human full length PKD3 expressed in baculovirus assessed as substrate phosphorylation using fluorescence-labelled peptides as substrate at 0.1 uM after 90 mins by microfluidic peptide phosphorylation assay

Assay [4] deals with T3, Serine/threonine-protein kinase BRSK2 (Homo sapiens) (UniProt Q8IWQ3).
T3 sequence (whole entry): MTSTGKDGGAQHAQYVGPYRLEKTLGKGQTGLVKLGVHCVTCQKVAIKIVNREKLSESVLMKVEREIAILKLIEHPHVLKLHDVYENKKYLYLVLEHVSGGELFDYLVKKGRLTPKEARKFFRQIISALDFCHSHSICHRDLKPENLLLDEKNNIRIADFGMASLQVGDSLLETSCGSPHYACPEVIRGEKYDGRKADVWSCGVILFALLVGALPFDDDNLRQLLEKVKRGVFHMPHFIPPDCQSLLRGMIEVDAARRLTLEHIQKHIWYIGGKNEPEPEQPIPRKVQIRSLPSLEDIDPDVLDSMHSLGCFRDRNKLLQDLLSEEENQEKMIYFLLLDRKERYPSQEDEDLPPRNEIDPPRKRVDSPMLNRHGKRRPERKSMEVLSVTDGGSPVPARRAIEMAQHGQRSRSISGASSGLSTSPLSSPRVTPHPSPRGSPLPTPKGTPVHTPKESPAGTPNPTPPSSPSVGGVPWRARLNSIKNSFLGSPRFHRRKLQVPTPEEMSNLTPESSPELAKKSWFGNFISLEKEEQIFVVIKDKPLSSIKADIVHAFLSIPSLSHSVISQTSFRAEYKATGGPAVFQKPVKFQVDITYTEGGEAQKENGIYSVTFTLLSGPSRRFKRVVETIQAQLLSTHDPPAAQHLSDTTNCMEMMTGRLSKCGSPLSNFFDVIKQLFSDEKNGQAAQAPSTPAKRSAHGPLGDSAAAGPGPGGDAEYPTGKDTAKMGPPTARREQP
The experiment in a line: Inhibition of human truncated BRSK2 expressed in baculovirus assessed as substrate phosphorylation using fluorescence-labelled peptides as substrate at 0.06 uM after 90 mins by microfluidic peptide phosphorylation assay.

For assay [5], the target named is Protein kinase C beta type (Homo sapiens) (UniProt P05771). The assay is described as follows: Inhibition of human truncated PKC beta1 expressed in baculovirus assessed as substrate phosphorylation using fluorescence-labelled peptides as substrate at 9 uM after 90 mins by microfluidic peptide phosphorylation assay.
The target of assay [6] is Fibroblast growth factor receptor 3 (Homo sapiens) (UniProt P22607). The experiment in a line: Inhibition of human FGFR3 catalytic domain expressed in baculovirus assessed as substrate phosphorylation using fluorescence-labelled peptides as substrate at 95 uM after 90 mins by microfluidic peptide phosphorylation assay.
Sequence of Fibroblast growth factor receptor 3 (Homo sapiens) (P22607 23-806 limits assumed): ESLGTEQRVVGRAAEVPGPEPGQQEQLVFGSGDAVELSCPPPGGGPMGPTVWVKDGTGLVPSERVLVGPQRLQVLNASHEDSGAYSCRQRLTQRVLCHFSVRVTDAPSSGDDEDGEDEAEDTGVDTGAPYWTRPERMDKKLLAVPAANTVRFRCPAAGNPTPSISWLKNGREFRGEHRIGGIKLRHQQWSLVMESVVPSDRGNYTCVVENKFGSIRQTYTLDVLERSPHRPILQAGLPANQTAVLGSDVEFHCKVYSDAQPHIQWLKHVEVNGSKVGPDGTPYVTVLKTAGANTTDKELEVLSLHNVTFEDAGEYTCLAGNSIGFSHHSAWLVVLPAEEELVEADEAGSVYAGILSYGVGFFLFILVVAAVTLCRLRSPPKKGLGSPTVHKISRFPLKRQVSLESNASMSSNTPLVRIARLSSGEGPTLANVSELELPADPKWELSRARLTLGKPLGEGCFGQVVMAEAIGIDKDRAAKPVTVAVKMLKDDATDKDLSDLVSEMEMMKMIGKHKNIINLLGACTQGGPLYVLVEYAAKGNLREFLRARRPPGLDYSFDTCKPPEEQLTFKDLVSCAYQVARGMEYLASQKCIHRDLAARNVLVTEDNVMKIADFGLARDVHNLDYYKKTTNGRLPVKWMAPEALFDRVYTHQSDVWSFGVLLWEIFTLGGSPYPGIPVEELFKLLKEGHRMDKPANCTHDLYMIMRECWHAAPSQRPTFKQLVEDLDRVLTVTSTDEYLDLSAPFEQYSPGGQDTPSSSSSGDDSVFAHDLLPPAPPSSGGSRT

Sequence of Protein kinase C beta type (Homo sapiens) (P05771 2-671 limits assumed): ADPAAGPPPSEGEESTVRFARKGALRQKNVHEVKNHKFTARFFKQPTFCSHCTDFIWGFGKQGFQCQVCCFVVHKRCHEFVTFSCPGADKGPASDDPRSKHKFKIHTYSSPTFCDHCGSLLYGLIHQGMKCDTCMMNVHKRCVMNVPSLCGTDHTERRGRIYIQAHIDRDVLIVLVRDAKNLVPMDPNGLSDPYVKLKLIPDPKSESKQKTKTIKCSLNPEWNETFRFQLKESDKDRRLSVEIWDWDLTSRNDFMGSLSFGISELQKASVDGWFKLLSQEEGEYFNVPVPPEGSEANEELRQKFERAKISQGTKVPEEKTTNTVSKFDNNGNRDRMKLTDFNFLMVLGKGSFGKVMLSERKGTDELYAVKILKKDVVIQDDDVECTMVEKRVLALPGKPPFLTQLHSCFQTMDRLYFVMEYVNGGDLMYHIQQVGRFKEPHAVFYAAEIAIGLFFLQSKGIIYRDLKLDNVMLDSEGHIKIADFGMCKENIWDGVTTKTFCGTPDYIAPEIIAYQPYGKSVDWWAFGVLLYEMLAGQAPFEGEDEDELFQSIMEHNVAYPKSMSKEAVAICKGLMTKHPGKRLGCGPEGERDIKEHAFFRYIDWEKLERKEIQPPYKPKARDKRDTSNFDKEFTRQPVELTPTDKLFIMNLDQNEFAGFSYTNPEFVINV

Regarding `c1nc(N2CCOCC2)c2nc[nH]c2n1`, the figures for the inhibition in assay [1] and in assay [2] were 77% and 70%, respectively. In turn, `C[C@H](CN(C)C)Oc1nc(Nc2cc3cccc(Cl)c3cn2)cnc1C#N` had an inhibition in assay [3] of 0%. Take `NC1(Cc2ccc(Cl)cc2)CCN(c2ncnc3[nH]ccc23)CC1`: in assay [4], the inhibition was 0%. Regarding `NCC1CN(c2ncnc3[nH]c4cnccc4c23)CCO1` (stereo unspecified), the inhibition in assay [5] amounted to 22.5%.

Turning to `NCCc1ccc(-c2ncnc3[nH]cnc23)cc1`, the inhibition in assay [6] was 27%.
